Here are results for 27 molecules from patent US11999716B2, “WDR5 inhibitors and modulators” (priority 2018, dated 2024).

A value given as a limit tells only on which side of the number the result lay.

For this assay, the system named is MV4:11 human cancer cell lines. Nature of the assay: Cellular viability / anti-proliferative activity, CellTiter-Glo, 5 day protocol. It is filed as cell-based. The following applies: Homo sapiens, MV4-11, 120 h, MV4:11 cells; 5 day incubation; CellTiter-Glo; mean of minimum two replicates; read-out: GI50 on cellular proliferation of MV4:11 human cancer cell lines. The procedure, abridged:
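Cells seeded at 200 per well (7200 cells/mL) with compound in 2-fold serial dilutions from 30 μM top (22 points), 0.3% DMSO final. Viability read by CellTiter-Glo luminescence after 5 days; GI50 from sigmoidal dose-response fit, mean of at least two replicates.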
On the technique in general: ATP-based viability assays read luminescence as a measure of living cells.
With `COc1cc(CN2CCc3c(OC4CCC4)cc(Cn4ccoc4=N)cc3C2=O)cc(OC)c1` [Example 92, 5-Cyclobutoxy-2-(3,5-dimethoxybenzyl)-7-((2-iminooxazol-3(2H)-yl)methyl)-3,4-dihydroisoquinolin-1(2H)-one], the GI50 was above 938 nM.

Regarding `COc1ccnc([C@H](C)N2CCc3c(cc(Cn4ccoc4=N)cc3-c3cn(C)nc3C(F)(F)F)C2=O)c1` [Example 93, (S)-7-((2-Iminooxazol-3(2H)-yl)methyl)-2-(1-(4-methoxypyridin-2-yl)ethyl)-5-(1-methyl-3-(trifluoromethyl)-1H-pyrazol-4-yl)-3,4-dihydroisoquinolin-1(2H)-one], the GI50 was below 50 nM.

Turning to `CCn1cc(-c2cc(Cn3ccoc3=N)cc3c2CCN(Cc2cc(C)nn2C)C3=O)c(C(F)(F)F)n1` [Example 94, 2-((1,3-Dimethyl-1H-pyrazol-5-yl)methyl)-5-(1-ethyl-3-(trifluoromethyl)-1H-pyrazol-4-yl)-7-((2-iminooxazol-3(2H)-yl)methyl)-3,4-dihydroisoquinolin-1(2H)-one], the GI50 stood at 159 nM.

As to `CCn1cc(-c2cc(CN3CCOC3=N)cc3c2CCN(Cc2cc(C)nn2C)C3=O)c(C(F)(F)F)n1` [Example 95, 2-((1,3-Dimethyl-1H-pyrazol-5-yl)methyl)-5-(1-ethyl-3-(trifluoromethyl)-1H-pyrazol-4-yl)-7-((2-iminooxazolidin-3-yl)methyl)-3,4-dihydroisoquinolin-1(2H)-one], the GI50 is 197 nM.

In the case of `CCn1cc(CN2CCc3c(cc(Cn4ccoc4=N)cc3-c3cn(CC)nc3C(F)(F)F)C2=O)nn1` [Example 96, 2-((1-Ethyl-1H-1,2,3-triazol-4-yl)methyl)-5-(1-ethyl-3-(trifluoromethyl)-1H-pyrazol-4-yl)-7-((2-iminooxazol-3(2H)-yl)methyl)-3,4-dihydroisoquinolin-1(2H)-one], the GI50 is below 50 nM.

`CCn1cc(-c2cc(Cn3ccoc3=N)cc3c2CCN(Cc2cn(C)nc2C)C3=O)c(C(F)(F)F)n1` [Example 97, 2-((1,3-Dimethyl-1H-pyrazol-4-yl)methyl)-5-(1-ethyl-3-(trifluoromethyl)-1H-pyrazol-4-yl)-7-((2-iminooxazol-3(2H)-yl)methyl)-3,4-dihydroisoquinolin-1(2H)-one]: the GI50 is 212 nM.

Consider `CCn1cc(-c2cc(CN3CCOC3=N)cc3c2CCN(Cc2cn(C)nc2C)C3=O)c(C(F)(F)F)n1` [Example 98, 2-((1,3-Dimethyl-1H-pyrazol-4-yl)methyl)-5-(1-ethyl-3-(trifluoromethyl)-1H-pyrazol-4-yl)-7-((2-iminooxazolidin-3-yl)methyl)-3,4-dihydroisoquinolin-1(2H)-one], for which the GI50 is 207 nM.

Take `CCn1cc(CN2CCc3c(cc(CN4CCOC4=N)cc3-c3cn(CC)nc3C(F)(F)F)C2=O)nn1` [Example 99, 2-((1-Ethyl-1H-1,2,3-triazol-4-yl)methyl)-5-(1-ethyl-3-(trifluoromethyl)-1H-pyrazol-4-yl)-7-((2-iminooxazolidin-3-yl)methyl)-3,4-dihydroisoquinolin-1(2H)-one]: the GI50 is 77 nM.

With `COc1cc(CN2CCc3c(cc(CN4CCSC4=N)cc3-c3ccc(F)cc3C)C2=O)cc(OC)c1` [Example 100, 2-(3,5-Dimethoxybenzyl)-5-(4-fluoro-2-methylphenyl)-7-((2-iminothiazolidin-3-yl)methyl)-3,4-dihydroisoquinolin-1(2H)-one], the GI50 turned out to be 269 nM.

Regarding `COc1ccnc(CN2CCc3c(cc(Cn4ccsc4=N)cc3-c3cn(C)nc3C(F)(F)F)C2=O)c1` [Example 101, 7-((2-Iminothiazol-3(2H)-yl)methyl)-2-((4-methoxypyridin-2-yl)methyl)-5-(1-methyl-3-(trifluoromethyl)-1H-pyrazol-4-yl)-3,4-dihydroisoquinolin-1(2H)-one], the GI50 was below 50 nM.

As to `CCn1cc(-c2cc(Cn3ccsc3=N)cc3c2CCN(Cc2cc(OC)ccn2)C3=O)cn1` [Example 102, 5-(1-ethyl-1H-pyrazol-4-yl)-7-((2-iminothiazol-3(2H)-yl)methyl)-2-((4-methoxypyridin-2-yl)methyl)-3,4-dihydroisoquinolin-1(2H)-one], the GI50 is above 938 nM.

With `COc1ccnc(CN2CCc3c(cc(Cn4cc(F)sc4=N)cc3-c3cn(C)nc3C(F)(F)F)C2=O)c1` [Example 103, 7-((5-Fluoro-2-iminothiazol-3(2H)-yl)methyl)-2-((4-methoxypyridin-2-yl)methyl)-5-(1-methyl-3-(trifluoromethyl)-1H-pyrazol-4-yl)-3,4-dihydroisoquinolin-1(2H)-one], the GI50 is above 938 nM.

Regarding `CCn1cc(-c2cc(Cn3ccsc3=N)cc3c2CCN([C@@H](C)c2cc(OC)ccn2)C3=O)c(C(F)(F)F)n1` [Example 104, (S)-5-(1-Ethyl-3-(trifluoromethyl)-1H-pyrazol-4-yl)-7-((2-iminothiazol-3(2H)-yl)methyl)-2-(1-(4-methoxypyridin-2-yl)ethyl)-3,4-dihydroisoquinolin-1(2H)-one], the GI50 was below 50 nM.

In the case of `COc1ccnc([C@H](C)N2CCc3c(cc(Cn4ccsc4=N)cc3-c3cn(C)nc3C(F)(F)F)C2=O)c1` [Example 105, (S)-7-((2-iminothiazol-3(2H)-yl)methyl)-2-(1-(4-methoxypyridin-2-yl)ethyl)-5-(1-methyl-3-(trifluoromethyl)-1H-pyrazol-4-yl)-3,4-dihydroisoquinolin-1(2H)-one], the GI50 is below 50 nM.

Consider `COc1ccnc(CN2CCc3c(cc(CN4CCCC4=N)cc3-c3cn(C)nc3C(F)(F)F)C2=O)c1` [Example 108, 7-((2-Iminopyrrolidin-1-yl)methyl)-2-((4-methoxypyridin-2-yl)methyl)-5-(1-methyl-3-(trifluoromethyl)-1H-pyrazol-4-yl)-3,4-dihydroisoquinolin-1(2H)-one], for which the GI50 came to 181 nM.

Take `COc1cc(CN2CCc3c(cc(CN4CCCC4=N)cc3-c3cn(C)nc3C(F)(F)F)C2=O)cc(OC)c1` [Example 109, 2-(3,5-Dimethoxybenzyl)-7-((2-iminopyrrolidin-1-yl)methyl)-5-(1-methyl-3-(trifluoromethyl)-1H-pyrazol-4-yl)-3,4-dihydroisoquinolin-1(2H)-one]: the GI50 was 104 nM.

For `COc1ccnc(CN2CCc3c(cc(CN4CCCC4=N)cc3-c3cn(C)nc3C)C2=O)c1` [Example 110, 5-(1,3-Dimethyl-1H-pyrazol-4-yl)-7-((2-iminopyrrolidin-1-yl)methyl)-2-((4-methoxypyridin-2-yl)methyl)-3,4-dihydroisoquinolin-1(2H)-one], the GI50 is above 938 nM.

In the case of `CCn1cc(-c2cc(CN3CCCC3=N)cc3c2CCN(Cc2cc(OC)ccn2)C3=O)cn1` [Example 111, 5-(1-Ethyl-1H-pyrazol-4-yl)-7-((2-iminopyrrolidin-1-yl)methyl)-2-((4-methoxypyridin-2-yl)methyl)-3,4-dihydroisoquinolin-1(2H)-one], the GI50 is above 938 nM.

For `Cc1ccnc(CN2CCc3c(cc(CN4CCCC4=N)cc3-c3cn(C)nc3C(F)(F)F)C2=O)c1` [Example 112, 7-((2-Iminopyrrolidin-1-yl)methyl)-5-(1-methyl-3-(trifluoromethyl)-1H-pyrazol-4-yl)-2-((4-methylpyridin-2-yl)methyl)-3,4-dihydroisoquinolin-1(2H)-one], the GI50 stood at 160 nM.

Turning to `COc1cc(CN2CCc3c(cc(CN4CCCC4=N)cc3-c3ccc(F)cc3C)C2=O)cc(OC)c1` [Example 113, 2-(3,5-Dimethoxybenzyl)-5-(4-fluoro-2-methylphenyl)-7-((2-iminopyrrolidin-1-yl)methyl)-3,4-dihydroisoquinolin-1(2H)-one], the GI50 was 462 nM.

Consider `COc1ccnc(CN2CCc3c(cc(CN4CCCC4=N)cc3-c3ccc(F)cc3C)C2=O)c1` [Example 114, 5-(4-Fluoro-2-methylphenyl)-7-((2-iminopyrrolidin-1-yl)methyl)-2-((4-methoxypyridin-2-yl)methyl)-3,4-dihydroisoquinolin-1(2H)-one], for which the GI50 stood at 129 nM.

For `CCn1cc(-c2cc(CN3Cc4ccccc4C3=N)cc3c2CCN(Cc2cc(OC)ccn2)C3=O)c(C(F)(F)F)n1` [Example 115, 5-(1-Ethyl-3-(trifluoromethyl)-1H-pyrazol-4-yl)-7-((1-iminoisoindolin-2-yl)methyl)-2-((4-methoxypyridin-2-yl)methyl)-3,4-dihydroisoquinolin-1(2H)-one], the GI50 is above 938 nM.

As to `COc1cc(CN2CCc3c(cc(Cn4ccccc4=N)cc3-c3ccc(F)cc3C)C2=O)cc(OC)c1` [Example 116, 2-(3,5-Dimethoxybenzyl)-5-(4-fluoro-2-methylphenyl)-7-((2-iminopyridin-1(2H)-yl)methyl)-3,4-dihydroisoquinolin-1(2H)-one], the GI50 is 268 nM.

With `COc1ccnc(CN2CCc3c(cc(Cn4ccccc4=N)cc3-c3cn(C)nc3C)C2=O)c1` [Example 117, 5-(1,3-Dimethyl-1H-pyrazol-4-yl)-7-((2-iminopyridin-1(2H)-yl)methyl)-2-((4-methoxypyridin-2-yl)methyl)-3,4-dihydroisoquinolin-1(2H)-one], the GI50 was above 938 nM.

`COc1cc(CN2CCc3c(cc(CNC(=N)C4CC4)cc3-c3ccc(F)cc3C)C2=O)cc(OC)c1` [Example 118, N-((2-(3,5-Dimethoxybenzyl)-5-(4-fluoro-2-methylphenyl)-1-oxo-1,2,3,4-tetrahydroisoquinolin-7-yl)methyl)cyclopropanecarboximidamide]: the GI50 worked out at 159 nM.

As to `COc1ccnc(CN2CCc3c(cc(CNC(=N)C4CC4)cc3-c3cn(C)nc3C)C2=O)c1` [Example 119, N-((5-(1,3-Dimethyl-1H-pyrazol-4-yl)-2-((4-methoxypyridin-2-yl)methyl)-1-oxo-1,2,3,4-tetrahydroisoquinolin-7-yl)methyl)cyclopropanecarboximidamide], the GI50 was above 938 nM.

For the molecule `COc1ccnc(CN2CCc3c(cc(CNC(=N)C(F)(F)F)cc3-c3cn(C)nc3C(F)(F)F)C2=O)c1` [Example 120, 2,2,2-Trifluoro-N-((2-((4-methoxypyridin-2-yl)methyl)-5-(1-methyl-3-(trifluoromethyl)-1H-pyrazol-4-yl)-1-oxo-1,2,3,4-tetrahydroisoquinolin-7-yl)methyl)acetimidamide], the GI50 is above 938 nM.
